Results reported in PubChem BioAssay (NCI).
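Five concentrations, 48 hours, 96-well plates. TGI marks complete inhibition of growth.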

What was measured:
Assay in all cases: NCI-60 cell line screen, 48 h
LXFL 529 NSCLC = tested on: LXFL 529 NSCLC
SNB-78 CNS = tested on: SNB-78 CNS
HOP-18 NSCLC = tested on: HOP-18 NSCLC
DMS 114 small cell lung = tested on: DMS 114 small cell lung
XF 498 CNS = tested on: XF 498 CNS
M19-MEL melanoma = tested on: M19-MEL melanoma
KM20L2 colon = tested on: KM20L2 colon
DMS 273 small cell lung = tested on: DMS 273 small cell lung
RXF-631 renal = tested on: RXF-631 renal

Row | SMILES | TGI (LXFL 529 NSCLC) | TGI (SNB-78 CNS) | TGI (HOP-18 NSCLC) | TGI (DMS 114 small cell lung) | TGI (XF 498 CNS) | TGI (M19-MEL melanoma) | TGI (KM20L2 colon) | TGI (DMS 273 small cell lung) | TGI (RXF-631 renal)
1 | COC1=CC(=O)C2C(C1=O)C(c1ccc(Cl)cc1)[C@@H]2C (stereo partly drawn) | 32.7 µM | > 100 µM | 25.2 µM | 47.7 µM | 37.5 µM | 97.9 µM | > 100 µM | > 100 µM | –
2 | CCOC(=O)c1c2ccc(/C=C/c3ccccc3)ccc-2c(C(=O)OCC)c1N | > 100 µM | – | > 100 µM | > 100 µM | – | > 100 µM | > 100 µM | > 100 µM | > 100 µM
3 | C[N+]1(C)C[C@@H](O)C[C@@H]1C(=O)[O-] | > 100 µM | > 100 µM | > 100 µM | > 100 µM | > 100 µM | > 100 µM | > 100 µM | > 100 µM | –
4 | CSc1nc2nc(C(O)C(O)C(O)CO)cnc2c(=O)[nH]1 (stereo not drawn) | > 100 µM | > 100 µM | – | > 100 µM | > 100 µM | > 100 µM | > 100 µM | > 100 µM | –
5 | C=C(C)CC(C)(c1cc2ccccc2n1C)N1CCOCC1 (stereo not drawn) | > 100 µM | – | > 100 µM | – | > 100 µM | > 100 µM | > 100 µM | > 100 µM | > 100 µM
6 | CCOC(=O)C1=C(c2ccccc2)N(C(C)=O)Cc2ccccc21 | > 100 µM | – | 99.4 µM | 25.9 µM | 25 µM | 39.3 µM | 53.7 µM | 29.8 µM | –
7 | Cc1nc2ccc(N)cc2[nH]c1=O | > 100 µM | > 100 µM | – | – | – | > 100 µM | > 100 µM | > 100 µM | > 100 µM
8 | O=C(O)COc1ccc(C(=O)/C(SS/C(C(=O)c2ccc(OCC(=O)O)c(Cl)c2Cl)=C2\C=C(c3ccccc3Cl)SS2)=C2/C=C(c3ccccc3Cl)SS2)c(Cl)c1Cl | 19.9 µM | 52.5 µM | > 72.4 µM | 26.1 µM | 50.4 µM | > 66.6 µM | > 100 µM | 56.9 µM | > 84.9 µM
9 | N#CC1CCCCC1NC1(C#N)CCCCC1 (stereo not drawn) | > 100 µM | > 100 µM | – | > 100 µM | > 100 µM | – | > 100 µM | > 100 µM | –
10 | CC(=O)NC(CCCNC(=O)OCc1ccccc1)C(=O)O (stereo not drawn) | > 100 µM | > 100 µM | – | > 100 µM | > 100 µM | > 100 µM | > 100 µM | > 100 µM | > 100 µM
